Entries after “also recorded” stand apart in the source; their conditions may differ.
What was measured:
[1] = system: patients with PD and constipation; test: Phase 2 trial Stage 2: bowel function / stool related indices on daily oral dosing; type: in vivo, human; details: for CSBM/week in the randomized cohort, Treatment (n = 6): baseline 0.8
Protocol: Following successful screening, all subjects underwent a 14-day run-in period where the degree of constipation was assessed through a validated daily log (Zinsmeister et al. 2013) establishing baseline CSBMs/week. Subjects with an average of <3 CSBMs/week proceeded to dosing.
In Stage 2, 34 patients were evaluated.
The primary efficacy outcome variable was whether or not a subject was a “success” or “failure”. This is an endpoint based on subject diary entries for the “fixed dose” period prior to the endpoint assessment defined as average complete stool frequency increase by 1 or more over baseline, or 3 or more complete spontaneous stools/week. The subject was deemed a “success” if s/he met one or more of the criteria listed above, otherwise the subject was deemed a “failure”. The primary analysis was based on all subjects with a baseline assessment and an assessment at the end of the “fixed-dose” period and was a comparison of the proportion of successes with 0.10 (the null hypothesis corresponding to no treatment effect).

[2] = set-up: species or system rats; details: rat, in vivo, po
patients with PD [3] = test: Sleep diary: total sleep time and REM-behavior disorder; type: in vivo, human
Protocol: FIG. 3 is a chart of total sleep time in relation to squalamine dose. Total sleep time was obtained from the sleep diary by subtracting awake time during the night from total time spent in bed. Total sleep time per night was logged for each patient at baseline, each dosing period and at washout, and the means were determined. The light grey bar represents the baseline value for each cohort at a given dose level and the dark grey bar represents the value for the same cohort at the stated dose of squalamine (ENT-01; Kenterin™). The number of patients represented at each value are: Baseline, 33; 75 mg, 21; 100 mg, 28; 125 mg, 18; 150 mg, 15; 175 mg, 12; 200 mg, 7; 225 mg, 3; 250 mg, 2; washout, 33. P values were as follows: 75 mg, p=0.4; 100 mg, p=0.1; 125 mg, p=0.3; 150 mg, p=0.07; 175 mg, p=0.03; 200 mg, p=0.3; 225 mg, p=0.5; 250 mg, p=0.3; wash-out, p=0.04 (paired t test).
(5) Sleep Diary (participants completed a sleep diary on a daily basis throughout the study. The diaries included time into bed and estimated time to sleep as well as wake time and duration during the night.); […]

patients with PD [4] = test: Circadian rhythm of wrist skin temperature; type: in vivo, human; details: 12 evaluable patients; for markers of circadian function (IS, RA, CFI, IV) of wrist skin temperature: fixed dose versus baseline
Protocol: (6) I-Button Temperature Assessment. The I-Button is a small, rugged self-sufficient system that measures temperature and records the results in a protected memory section. The Thermochron I-Button DS1921H (Maxim Integrated, Dallas, Tex.) was used for skin temperature measurement. I-Buttons were programmed to sample every 10 mins., and attached to a double-sided cotton sport wrist band using Velcro, with the sensor face of the I-Button placed over the inside of the wrist, on the radial artery of the dominant hand. Subjects removed and replaced the data logger when necessary (i.e., to have a bath or shower). The value of skin temperature assessment in sleep research is that the endogenous skin warming resulting from increased skin blood flow is functionally linked to sleep propensity. From the collected data, the mesor, amplitude, acrophase (time of peak temperature), Rayleight test (an index of interdaily stability), mean waveforms are calculated.);
Assessments were made at baseline and at the end of the fixed dose and washout periods. Circadian system status was evaluated by continuously monitoring wrist skin temperature (Thermochron iButton DS1921H; Maxim, Dallas) following published procedures (Sarabia et al. 2008).
Circadian rhythm of skin temperature was evaluable in 12 patients (i.e., those who had recordings that extended from baseline through washout). Circadian system functionality was evaluated by continuously monitoring wrist skin temperature using a temperature sensor (Thermochron iButton DS1921H; Maxim, Dallas, Tex.) (Sarabia et al. 2008). […]
Briefly, this analysis includes the following parameters: (i) the inter-daily stability (the constancy of 24-hour rhythmic pattern over days, IS); (ii) intra-daily variability (rhythm fragmentation, IV); (iii) average of 10-minute intervals for the 10 hours with the minimum temperature (L10); (iv) average of 10-minute intervals for the 5 hours with the maximum temperature (M5) and the relative amplitude (RA), which was determined by the difference between M5 and L10, divided by the sum of both. […]

CC(C)[C@@H](CC[C@@H](C)[C@H]1CC[C@H]2[C@@H]3[C@H](O)C[C@H]4C[C@@H](NCCCNCCCCN)CC[C@]4(C)[C@H]3CC[C@]12C)OS(=O)(=O)O (single isomer, unassigned) [squalamine (ENT-01), squalamine]
CSBM/week in the randomized cohort, group later randomized to Placebo (n = 9) ([1]; Fixed dose period (on drug, before randomization), baseline 1.6): 3.3 CSBM/week | CSBM/week in the randomized cohort, Treatment (n = 6) ([1]; Fixed dose period): 3.2 CSBM/week | CSBM/week in the randomized cohort, Treatment (n = 6) ([1]; Randomized period (4-6 days continued treatment)): 2.4 CSBM/week | CSBM/week in the randomized cohort, Treatment (n = 6) ([1]; Washout): 0.9 CSBM/week | absorption from the intestine [2]: low | RBD and total sleep time (patients with PD [3]; dose escalation, Stage 2): improved progressively in a dose-dependent manner | total sleep time versus baseline by dose (patients with PD [3]; doses beyond 125 mg): consistently higher than baseline beyond 125 mg | markers of circadian function (IS, RA, CFI, IV) of wrist skin temperature (patients with PD [4]): improved all markers of healthy circadian function | markers of circadian function (IS, RA, CFI, IV) of wrist skin temperature (patients with PD [4]; listed as ENT-01): significant positive impact; also recorded: improved all markers of healthy circadian function | circadian parameters during wash-out period (patients with PD [4]; wash-out versus baseline (IS, CFI)): improvement persisted for several of these circadian parameters
